Laboratory results from patent US9303016B2, “Derivatives of aza adamantane and uses thereof” (CONNEXIOS LIFE SCIENCES PVT. LTD., priority 2011, dated 2016).
pIC50: −log10 of the molar value.

Target: T1, human full length HSD11β1 (Homo sapiens, UniProt P28845)
T1 construct: transient expression of human full length HSD11β1 expression vector; host or cells: CHO cells, transient transfection
Test: In Vitro HSD11β1 Inhibition Assay
Assay type: cell-based
Conditions: CHO cells transiently expressing human HSD11β1; 200 nM cortisone+500 uM NADPH overnight; cortisone to cortisol by LC/MS-MS; read-out: 11βHSD1 (IC50)
Outline: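 Whole-cell assay in CHO cells transiently transfected with full-length human HSD11β1, re-seeded 24 h after transfection. Cells incubated overnight with 200 nM cortisone plus 500 uM NADPH, with or without inhibitor. Cortisone-to-cortisol conversion measured by LC/MS-MS; IC50 (nM) from an 8-point log concentration-inhibition curve.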

T1 sequence (P28845 whole entry): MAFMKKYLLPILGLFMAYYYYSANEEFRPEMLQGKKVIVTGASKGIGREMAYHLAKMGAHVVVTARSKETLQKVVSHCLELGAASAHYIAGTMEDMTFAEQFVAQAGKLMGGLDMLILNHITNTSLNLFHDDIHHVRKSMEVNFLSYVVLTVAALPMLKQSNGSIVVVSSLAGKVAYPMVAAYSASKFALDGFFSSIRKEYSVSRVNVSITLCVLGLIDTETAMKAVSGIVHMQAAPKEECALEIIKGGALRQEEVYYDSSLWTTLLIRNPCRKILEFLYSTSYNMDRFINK

| pIC50 | SMILES |
| --- | --- |
| < 6.60 | CCCc1cccc2[nH]cc(CCC(=O)N3C4CC5CC3CC(O)(C5)C4)c12 [Compound 128, 1-(5-hydroxy-2-azatricyclo[3.3.1.1^3,7]dec-2-yl)-3-(4-propyl-1H-indol-3-yl)propan-1-one] |
| < 6.60 | Cc1cccc2c1nnn2C(CC(=O)N1C2CC3CC1CC(O)(C3)C2)C(C)C (centres unmarked) [Compound 131, 1-(5-hydroxy-2-azatricyclo[3.3.1.1^3,7]dec-2-yl)-4-methyl-3-(4-methyl-1H-benzotriazol-1-yl)pentan-1-one] |
| > 7.00 | CC(CC(=O)N1C2CC3CC1CC(O)(C3)C2)c1c[nH]c2nccc(C3CC3)c12 (centres unmarked) [Compound 132, 3-(4-cyclopropyl-1H-pyrrolo[2,3-b]pyridin-3-yl)-1-(5-hydroxy-2-azatricyclo[3.3.1.1^3,7]dec-2-yl)butan-1-one] |
| 6.82 to 7.00 | CC(CC(=O)N1C2CC3CC1CC(O)(C3)C2)c1c[nH]c2cc(Cl)c(F)cc12 (centres unmarked) [Compound 133, 3-(6-chloro-5-fluoro-1H-indol-3-yl)-1-(5-hydroxy-2-azatricyclo[3.3.1.1^3,7]dec-2-yl)butan-1-one] |
| 6.70 to 6.82 | O=C(CC(c1ccccc1)c1c[nH]c2cc(Cl)ccc12)N1C2CC3CC1CC(C(=O)O)(C3)C2 (centres unmarked) [Compound 134, 2-[3-(6-chloro-1H-indol-3-yl)-3-phenylpropanoyl]-2-azatricyclo[3.3.1.1^3,7]decane-5-carboxylic acid] |
| < 6.60 | CC(CC(=O)N1C2CC3CC1CC(O)(C3)C2)c1c[nH]c2ncc(Cl)cc12 (centres unmarked) [Compound 135, 3-(5-chloro-1H-pyrrolo[2,3-b]pyridin-3-yl)-1-(5-hydroxy-2-azatricyclo[3.3.1.1^3,7]dec-2-yl)butan-1-one] |
| > 7.00 | CC(CC(=O)N1C2CC3CC1CC(C#N)(C3)C2)c1c[nH]c2nccc(C3CC3)c12 (centres unmarked) [Compound 136, 2-[3-(4-cyclopropyl-1H-pyrrolo[2,3-b]pyridin-3-yl)butanoyl]-2-azatricyclo[3.3.1.1^3,7]decane-5-carbonitrile] |
| < 6.60 | CC(CC(=O)N1C2CC3CC1CC(C#N)(C3)C2)c1c[nH]c2ncc(Cl)cc12 (centres unmarked) [Compound 137, 2-[3-(6-chloro-1H-pyrrolo[2,3-b]pyridin-3-yl)butanoyl]-2-azatricyclo[3.3.1.1^3,7′]decane-5-carbonitrile] |
| 6.82 to 7.00 | CC(CC(=O)N1C2CC3CC1CC(O)(C3)C2)c1c[nH]c2cc(Cl)c(C3CC3)cc12 (centres unmarked) [Compound 138, 3-(6-chloro-5-cyclopropyl-1H-indol-3-yl)-1-(5-hydroxy-2-azatricyclo[3.3.1.1^3,7]dec-2-yl)butan-1-one] |
| > 7.00 | Cc1c(F)ccc2[nH]cc(C(C)CC(=O)N3C4CC5CC3CC(O)(C5)C4)c12 (centres unmarked) [Compound 139, 3-(5-fluoro-4-methyl-1H-indol-3-yl)-1-(5-hydroxy-2-azatricyclo[3.3.1.1^3,7]dec-2-yl)butan-1-one] |
| < 6.60 | CC(CC(=O)N1C2CC3CC1CC(C(=O)O)(C3)C2)c1c[nH]c2ccc(-c3ccccc3)cc12 (centres unmarked) [Compound 142, 2-[3-(5-phenyl-1H-indol-3-yl)butanoyl]-2-azatricyclo[3.3.1.1^3,7]decane-5-carboxylic acid] |
| 6.82 to 7.00 | CC(CC(=O)N1C2CC3CC1CC(CC(=O)O)(C3)C2)c1c[nH]c2cccc(Cl)c12 (centres unmarked) [Compound 145, {2-[3-(4-chloro-1H-indol-3-yl)butanoyl]-2-azatricyclo[3.3.1.1^3,7]dec-5-yl}acetic acid] |
| < 6.60 | CC(CC(=O)N1C2CC3CC1CC(c1nnn[nH]1)(C3)C2)c1c[nH]c2cccc(C3CC3)c12 (centres unmarked) [Compound 149, 3-(4-cyclopropyl-1H-indol-3-yl)-1-[5 (1H-tetrazol-5-yl)-2-azatricyclo[3.3.1.1^3,7]dec-2-yl]butan-1-one] |
| 6.82 to 7.00 | CC(CC(=O)N1C2CC3CC1CC(CC(=O)O)(C3)C2)c1c[nH]c2cccc(C3CC3)c12 (centres unmarked) [Compound 152, {2-[3-(4-cyclopropyl-1H-indol-3-yl)butanoyl]-2-azatricyclo[3.3.1.1^3,7]dec-5-yl}acetic acid] |
| > 7.00 | CC(CC(=O)N1C2CC3CC1CC(O)(C3)C2)c1c[nH]c2cccc(-c3cccs3)c12 (centres unmarked) [Compound 153, 1-(5-hydroxy-2-azatricyclo[3.3.1.1^3,7]dec-2-yl)-3-[4-(thiophen-2-yl)-1H-indol-3-yl]butan-1-one] |
| < 6.60 | CC(CC(=O)N1C2CC3CC1CC(CC(=O)O)(C3)C2)c1c[nH]c2cccc(-c3cccs3)c12 (centres unmarked) [Compound 154, (2-{3-[4-(thiophen-2-yl)-1H-indol-3-yl]butanoyl}-2-azatricyclo[3.3.1.1^3,7]dec-5-yl)acetic acid] |
| 6.82 to 7.00 | O=C(O)CC12CC3CC(C1)N(C(=O)CC(c1cccs1)c1c[nH]c4cccc(F)c14)C(C3)C2 (centres unmarked) [Compound 159, {2-[3-(4-fluoro-1H-indol-3-yl)-3-(thiophen-2-yl)propanoyl]-2-azatricyclo[3.3.1.1^7]dec-5-yl}acetic acid] |
| 6.82 to 7.00 | Cc1ccc2[nH]cc(C(C)CC(=O)N3C4CC5CC3CC(O)(C5)C4)c2c1C1CC1 (centres unmarked) [Compound 160, 3-(4-cyclopropyl-5-methyl-1H-indol-3-yl)-1-(5-hydroxy-2-azatricyclo[3.3.1.1^3,7]dec-2-yl)butan-1-one] |
| 6.70 to 6.82 | CC(CC(=O)N1C2CC3CC1CC(CC(=O)O)(C3)C2)c1c[nH]c2ccc(Cl)c(Br)c12 (centres unmarked) [Compound 162, {2-[3-(4-bromo-5-chloro-1H-indol-3-yl)butanoyl]-2-azatricyclo[3.3.1.1^3,7]dec-5-yl}acetic acid] |
| < 6.60 | CC(CC(=O)N1C2CC3(O)CC1CC(O)(C2)C3)c1c[nH]c2ccc(Cl)c(C3CC3)c12 (centres unmarked) [Compound 163, 3-(5-chloro-4-cyclopropyl-1H-indol-3-yl)-1-(5,7-dihydroxy-2-azatricyclo[3.3.1.1^3,7]dec-2-yl)butan-1-one] |
| 6.82 to 7.00 | Cc1ccc2[nH]cc(C(C)CC(=O)N3C4CC5CC3CC(O)(C5)C4)c2c1C (centres unmarked) [Compound 164, 3-(4,5-dimethyl-1H-indol-3-yl)-1-(5-hydroxy-2-azatricyclo[3.3.1.1^3,7]dec-2-yl)butan-1-one] |
| < 6.60 | COc1ccc2[nH]cc(C(C)CC(=O)N3C4CC5CC3CC(O)(C5)C4)c2c1C (centres unmarked) [Compound 165, 1-(5-hydroxy-2-azatricyclo[3.3.1.1^3,7]dec-2-yl)-3-(5-methoxy-4-methyl-1H-indol-3-yl)butan-1-one] |
| > 7.00 | Cc1ccc2[nH]cc(C(C)CC(=O)N3C4CC5CC3CC(O)(C5)C4)c2c1Cl (centres unmarked) [Compound 166, 3-(4-chloro-5-methyl-1H-indol-3-yl)-1-(5-hydroxy-2-azatricyclo[3.3.1.1^3,7]dec-2-yl)butan-1-one] |
| 6.60 to 6.70 | CC(CC(=O)N1C2CC3CC1CC(C(C)C(=O)O)(C3)C2)c1c[nH]c2cccc(C3CC3)c12 (centres unmarked) [Compound 167, 2-{2-[3-(4-cyclopropyl-1H-indol-3-yl)butanoyl]-2-azatricyclo[3.3.1.1^3,7]dec-5-yl}propanoic acid] |
| > 7.00 | CC(CC(=O)N1C2CC3CC1CC(O)(C3)C2)c1c[nH]c2ccc(Cl)c(Cl)c12 (centres unmarked) [Compound 168, 3-(4,5-dichloro-1H-indol-3-yl)-1-(5-hydroxy-2-azatricyclo[3.3.1.1^3,7]dec-2-yl)butan-1-one] |
| 6.60 to 6.70 | COc1ccc2[nH]cc(C(C)CC(=O)N3C4CC5CC3CC(O)(C5)C4)c2c1C1CC1 (centres unmarked) [Compound 171, 3-(4-cyclopropyl-5-methoxy-1H-indol-3-yl)-1-(5-hydroxy-2-azatricyclo[3.3.1.1^3,7]dec-2-yl)butan-1-one] |
